{"source": "patent US9085605B2", "about": "“Chemical synthesis and anti-tumor and anti-metastatic effects of dual functional conjugate” (Shenzhen Salubris Pharmaceuticals Co., Ltd., priority 2010, dated 2015)", "key": {"[1]": {"system": "lewis lung cancer", "conditions": "TAXOL 6 mg/kg i.p. once daily", "experimental": "C57Bl/6 mice with lewis lung cancer were sacrificed and the tumor was removed. The tumor cell suspension (5×10^6 cell/mL) was prepared in a sterile condition. The suspension (0.2 mL/mice, 1×10^6 tumor cell) was inoculated subcutaneously into the axillary of 24 C57Bl/6 mice. […] From the 7th day after the implantation, the long diameter and short diameter of tumor was measured every 2 days. Tumor volume was calculated by the formula (½)×long diameter×short diameter^2. Drug was withdrawn on the eighteenth day after the implantation. All mice were then sacrificed and the body weight was measured. The tumors, spleen and lung were removed and weighed. The lungs were fixed in Bouin's fixative for 24 h. The numbers of lung metastasis nodule were counted, and the statistics was evaluated by Mann-Whitney U test."}, "[2]": {"system": "Mice breast cancer cell line (4T1, ATCC CRL2539)", "conditions": "TAXOL 3 mg/kg i.p. once daily", "experimental": "Mice breast cancer cell line (4T1, ATCC CRL2539) was a generous gift from Prof. Wei Liang of the Institute of biophysics, Chinese Academy of Sciences. The cell was cultured in the 1640 medium (Gibco) containing 10% fetal bovine serum (FBS), 1% glutamine and 1% penicillin.\n4T1 cells in logarithmic phase were collected and the concentration was adjusted to 2×10^6/mL. 4T1 tumors were introduced in female BALB/c mice by injecting subcutaneously into the fourth fat pad area of the right abdominal mammary gland with the dose of 2×10^5/0.1 mL. […] From the 9th day after implantation, tumor growth was measured every 2 days with vernier calipers for determining the long diameter and short diameter of tumor. Tumor volume was calculated by the formula (½)×long diameter×short diameter^2. Drug was withdrawn on the twenty-eight days after the implantation, all mice were then sacrificed and the body weight were measured. The tumors, spleen and lung were removed and weighed. The lungs were fixed in Bouin's fixative for 24 h. The numbers of lung metastasis nodule were counted, the statistics was evaluated using Mann-Whitney U test."}, "[3]": {"system": "Human lung cancer H460", "conditions": "for TGI: 24 mg/kg", "text": "Through cell culture in vitro, the tumor was inoculated on nude mice, the tumor grew and passaged for the experiment use. • Animals: BALB/c nude mice, ♀, 4˜5 weeks old, were obtained from the Experimental Lab, Chinese Academy of Medical Science, Certificate NO. […] Experiment Method:\nThe tumor-bearing mice with good tumor growth and good general physical condition were selected and sacrificed. Tumor was isolated in a sterile condition and cut into fragments (diameter for about 2-3 mm) by surgical knife. The fragments were then hypodermically inoculated in posterior axillary of nude mice by means of a trocar.\nAfter the tumors grew naturally for eight days, the average volume of tumors reaches 130 mm^3. The length and width of tumor was measured using vernier calipers, and divided into groups by the tumor volume.\nThe mice were divided into five groups for observation, each groups had eight mice. […] Respective drug was administrated for each group from the grouping day.\nThe experiment was terminated 24 hours after the last administration.\nDuring the experimentation, the tumors sizes (length and width) and body weights of mice were measured once every three days. The tumor volume (TV) and relative tumor volume (RTV) were calculated according to the method for references, and the tumor volume growth tendency chart was plotted.\nAt the end of the experiment, the mice were sacrificed. Tumors were removed and weighed, and the inhibition rate of the tumor growth by drugs was calculated. Statistical significance of the tumor weight, tumor volume and RTV level were evaluated by t-test.\n[formula] • (C, average tumor weight of control group; T, average tumor weight of administrated group) • Tumor Volume (TV)=length×width^2/2. • Relative Tumor Volume (RTV) formula: Vt/Vo • (Vo is the volume of TV at the beginning of the grouping, and Vt is the volume of TV at measure time) • Anti-tumor activities were evaluated by Tumor Relative proliferation Rate T/C (%)\n[formula] • Therapeutic effect evaluation standard: T/C (%)>40, was judged as invalid; • T/C (%)≦40, and through statistical evaluation P<0.05, was judged as valid."}, "[4]": {"system": "human breast cancer line MDA-MB-231", "assay": "Tumor growth inhibition in nude mice xenograft model, MDA-MB-231", "conditions": "Paclitaxel 24 mg/kg × 4, intermittent i.p.", "experimental": "• 1. […] Drug administration dose were set as: 10 mg/kg, 15 mg/kg, and 20 mk/kg, drug administration volume was 0.2 mL/20 g. • 2. […] MDA [Peptide (P) 0.54 mg/mL (0.001M), Example 10], a colorless and clear liquid, was prepared by the commission, can be directly used after the repackaging in a sterile condition, stored at 4° C. […] Certificate NO. […] SYSK (BeiJing) 2004-0001. Experiment Methods:\nThe mice were divided into groups and administrated drug after 11 days.\nThe mice were divided into eight groups, each group had 6-8 mice. The groups contained Negative control. […] After grouping, all mice were administrated with drug by intraperitoneal injection once a day depends on their body weight.\nOther groups were administered with drugs for 24 times successively. The experiment was completed 24 h after the last administration.\nThe mice were sacrificed, and tumors were isolated and their weight was measured, and the inhibition rate of tumor growth by drugs were calculated. […] Calculation methods and formula were omitted."}, "[5]": {"system": "lewis lung cancer", "assay": "Anti-artificial metastasis on Lewis lung cancer in mice (intravenous inoculation)", "assay_type": "in vivo, C57Bl/6 mice", "conditions": "TAXOL 3 mg/kg i.p.", "experimental": "The suspension (0.2 mL/mice, 3×10^5 tumor cell) was inoculated intravenously into the tails of fifty C57Bl/6 mice. […] The tumors, spleen and lung were removed and weighed."}, "[6]": {"conditions": "Paclitaxel injection 24 mg/kg × 4, once every three days"}}, "note": "Like-named read-outs stand apart in the source and are kept apart here.", "data": [{"smiles": "CC(=O)O[C@H]1C(=O)[C@@]2(C)[C@H]([C@H](OC(=O)c3ccccc3)[C@]3(O)C[C@H](OC(=O)[C@H](O)[C@@H](NC(=O)c4ccccc4)c4ccccc4)C(C)=C1C3(C)C)[C@]1(OC(C)=O)CO[C@@H]1C[C@@H]2O", "note": "[Paclitaxel, reference compound]", "values": [{"measurement": "Lung metastasis nodule counts", "setting": "[1]; listed as TAXOL", "result": "24.9 ± 9"}, {"measurement": "Lung metastasis nodule counts", "setting": "[1]; listed as Taxol", "result": "no significant improvement"}, {"measurement": "Lung weight", "setting": "[2]", "result": "190 ± 49", "unit": "mg"}, {"measurement": "Lung metastasis nodule counts", "setting": "[2]; listed as TAXOL", "result": "41.2 ± 9"}, {"measurement": "Lung metastasis nodule counts", "setting": "[2]; listed as Taxol", "result": "no significant improvement"}, {"measurement": "Body weight Beginning", "setting": "[3]; [6]", "result": "18.9 ± 1.28", "unit": "g"}, {"measurement": "Body weight End", "setting": "[3]; [6]", "result": "18.6 ± 1.41", "unit": "g"}, {"measurement": "RTV", "setting": "[3]; [6]", "result": "11.9 ± 3.16"}, {"measurement": "T/C", "setting": "[3]; [6]", "result": 35.6, "unit": "%"}, {"measurement": "Tumor volume Beginning", "setting": "[3]; [6]", "result": "130 ± 36.7", "unit": "mm^3"}, {"measurement": "Tumor volume End", "setting": "[3]; [6]", "result": "1583 ± 507.2", "unit": "mm^3"}, {"measurement": "Tumor weight", "setting": "[3]; [6]", "result": "1.16 ± 0.410", "unit": "g"}, {"measurement": "TGI", "setting": "[3]; Paclitaxel injection 24 mg/kg × 4, once every three days, listed as Paclitaxel injection", "result": 61.0, "unit": "%"}, {"measurement": "TGI", "setting": "[3]; Paclitaxel injection 24 mg/kg × 4, once every three days, listed as paclitaxel", "result": 61, "unit": "%"}, {"measurement": "Body weight lost compared with the average weight at the beginning of grouping", "setting": "[3]; paclitaxel 24 mg/kg intermittently", "result": 2}, {"measurement": "Tumor growth inhibition rate compared with negative control", "setting": "[3]; paclitaxel 24 mg/kg, after the fourth administration", "result": 65, "unit": "%"}, {"measurement": "RTV", "setting": "[4]", "result": "3.18 ± 2.735"}, {"measurement": "T/C", "setting": "[4]", "result": 17.64, "unit": "%"}, {"measurement": "TGI", "setting": "[4]", "result": 84.9, "unit": "%"}, {"measurement": "Tumor volume Beginning", "setting": "[4]", "result": "133 ± 39.8", "unit": "mm^3"}, {"measurement": "Tumor volume End", "setting": "[4]", "result": "422 ± 404.6", "unit": "mm^3"}, {"measurement": "Tumor weight", "setting": "[4]", "result": "0.43 ± 0.416", "unit": "g"}, {"measurement": "Lung weight", "setting": "[5]", "result": "497 ± 491", "unit": "mg"}, {"measurement": "Lung metastasis nodule counts", "setting": "[5]; listed as TAXOL", "result": "38.5 ± 28"}, {"measurement": "Lung metastasis nodule counts", "setting": "[5]; listed as Taxol", "result": "no significant improvement"}]}]}
